Laboratory results reported in BindingDB's records for doi:10.1021/jm800527x (Roche Palo Alto, 2008).

Columns and labels:
[1] = biological target: T1, Gag-Pol polyprotein [588-1027,K691N,Y769C]/[588-1147,K691N,Y769C] (Human immunodeficiency virus 1, UniProt P04585, K691N/Y769C); assay: HIV-1 Reverse Transcriptase Assay; conditions: pH 8; 30 °C
T1 construct: 588-1027; 588-1147
Excerpt: (§1) IC50s were obtained from the inhibition of the RNA-dependent DNA polymerase activity of the HIV-1 reverse transcriptase enzyme using a primer extension assay. EC50s were obtained from inhibition of virus-induced cell-death in MT-4 cells.

[2] = biological target: T2, Gag-Pol polyprotein [588-1027] (Human immunodeficiency virus type 1 group M subtype B (isolate HXB2), UniProt P04585); assay: HIV-1 Reverse Transcriptase Assay; conditions: pH 8; 30 °C
T2 construct: 588-1027
Excerpt: as §1

Row | Structure (SMILES) | EC50 [1] [nM] | EC50 [2] [nM]
1 | Cc1cc(C#N)cc(Oc2ccc(Cc3n[nH]c4nnccc34)cc2Br)c1 [3-(2-bromo-4-{1H-pyrazolo[3,4-c]pyridazin-3-ylmethyl}phenoxy)-5-methylbenzonitrile] | > 100 | 
2 | N#Cc1cc(Cl)cc(Oc2c(Br)ccc(Cc3n[nH]c4nccnc34)c2F)c1 [3-(6-bromo-2-fluoro-3-{1H-pyrazolo[3,4-b]pyrazin-3-ylmethyl}phenoxy)-5-chlorobenzonitrile] | > 100 | > 25
